Laboratory results as given in doi:10.1101/2025.05.21.655333v1, “Role of glutamate 292 and lysine 331 in catalysis for the flavoenzyme (S)-6-hydroxynicotine oxidase from Shinella sp. HZN7” (biorxiv, 2025).

Biological target: T1, NctB (Shinella sp. HZN7, UniProt A0A075BSX9)
T1 construct: synthetic gene in pET29b (NdeI/XhoI), C-terminal His tag, expressed in E. coli BL21(DE3); FAD-containing flavoenzyme
Assay: absorbance spectra before and after SDS/heat release of FAD
Format: binding
Conditions: pH 7.5; prosthetic group co-purified with the enzyme

T1 sequence (A0A075BSX9 whole entry): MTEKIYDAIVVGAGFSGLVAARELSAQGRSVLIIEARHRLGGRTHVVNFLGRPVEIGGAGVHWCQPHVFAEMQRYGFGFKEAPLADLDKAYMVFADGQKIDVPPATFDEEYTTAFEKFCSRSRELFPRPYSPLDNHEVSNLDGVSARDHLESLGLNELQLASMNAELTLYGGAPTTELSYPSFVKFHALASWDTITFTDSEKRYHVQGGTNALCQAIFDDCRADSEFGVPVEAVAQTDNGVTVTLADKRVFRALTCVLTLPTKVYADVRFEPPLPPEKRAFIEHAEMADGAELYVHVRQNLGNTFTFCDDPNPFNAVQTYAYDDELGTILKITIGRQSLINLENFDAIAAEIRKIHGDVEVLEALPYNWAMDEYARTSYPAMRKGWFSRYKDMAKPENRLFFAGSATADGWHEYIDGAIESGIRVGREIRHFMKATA

Compound: Cc1cc2nc3c(=O)[nH]c(=O)nc-3n(C[C@H](O)[C@H](O)[C@H](O)COP(=O)(O)OP(=O)(O)OC[C@H]3O[C@@H](n4cnc5c(N)ncnc54)[C@H](O)[C@@H]3O)c2cc1C [flavin adenine dinucleotide]
- absorbance spectra before and after SDS/heat release of FAD: The extinction coefficient of FAD bound to NctB was then calculated
